Earlier results, collected in patent publication US20210060105A1, “GINKGO BILOBA EXTRACT COMPOSITE FORMULATION AND USE OF THE SAME” (priority 2019, published 2021).

Assays:
[1] = increased from the original 49.7±3.6 mg/dL

SMILES: CC1=C(/C=C/C(C)=C/C=C/C(C)=C/C=C/C=C(C)/C=C/C=C(C)/C=C/C2=C(C)C(=O)[C@@H](O)CC2(C)C)C(C)(C)C[C@H](O)C1=O [Astaxanthin, astaxanthin]
- HDL in vivo after astaxanthin [1]: 66.5 ± 5.1 mg/dL
- antioxidant ability relative to vitamin E (compared with vitamin E): 550 times
- antioxidant ability relative to β-carotene (compared with β-carotene): 10 times
